Values joined by “and” are separate entries in the source; they are usually repeats but may differ in a detail not shown here. Equal values may be shown once.
Columns and labels:
Experiment in all cases: KINOMEscan competition binding
Details in all cases: compound 10.0 µM
[1] = system: KIT (human), P10721 [L576P]
[2] = target: MAP3K7 (human) (UniProt O43318)
[3] = target: MET (human) (UniProt P08581)
[4] = target: INSRR (human) (UniProt P14616)
[5] = target: PIM2 (human) (UniProt Q9P1W9)
[6] = target: TAOK1 (human) (UniProt Q7L7X3)
[7] = target: CASK (human) (UniProt O14936)
[8] = target: TSSK1B (human) (UniProt Q9BXA7)
[9] = target: NEK3 (human) (UniProt P51956)
[10] = target: MAPK3 (human) (UniProt P27361)
[11] = target: EIF2AK2 (human) (UniProt P19525)
[12] = target: EPHB3 (human) (UniProt P54753)
[13] = target: BTK (human) (UniProt Q06187)
[14] = target: CSNK1G1 (human) (UniProt Q9HCP0)
[15] = target: DSTYK (human) (UniProt Q6XUX3)
[16] = target: FLT3 (human) (UniProt P36888)
[17] = target: PLK4 (human) (UniProt O00444)
[18] = target: MST1R (human) (UniProt Q04912)
[19] = target: WEE1 (human) (UniProt P30291)
[20] = target: FYN (human) (UniProt P06241)
[21] = target: PIM1 (human) (UniProt P11309)
[22] = target: STK35 (human) (UniProt Q8TDR2)
[23] = target: MAP3K11 (human) (UniProt Q16584)
[24] = target: PAK2 (human) (UniProt Q13177)
[25] = target: PKN3 (M.tuberculosis) (UniProt Q6P5Z2)
[26] = target: ROCK1 (human) (UniProt Q13464)
[27] = target: MAPK9 (human) (UniProt P45984)
[28] = target: TRPM6 (human) (UniProt Q9BX84)
[29] = target: PAK7 (human) (UniProt Q9P286)
[30] = target: RIPK1 (human) (UniProt Q13546)
[31] = target: NEK6 (human) (UniProt Q9HC98)
[32] = target: GSK3B (human) (UniProt P49841)
[33] = target: STK32B (human) (UniProt Q9NY57)
[34] = target: DYRK1A (human) (UniProt Q13627)
[35] = target: ROCK2 (human) (UniProt O75116)
[36] = target: MYLK2 (human) (UniProt Q9H1R3)
[37] = target: JAK1 JH1 catalytic (human) (UniProt P23458)
[38] = target: AAK1 (human) (UniProt Q2M2I8)
[39] = target: CDK18 (human) (UniProt Q07002)
[40] = target: RIPK2 (human) (UniProt O43353)

NEK6 (human), sequence (Q9HC98 whole entry, looked up): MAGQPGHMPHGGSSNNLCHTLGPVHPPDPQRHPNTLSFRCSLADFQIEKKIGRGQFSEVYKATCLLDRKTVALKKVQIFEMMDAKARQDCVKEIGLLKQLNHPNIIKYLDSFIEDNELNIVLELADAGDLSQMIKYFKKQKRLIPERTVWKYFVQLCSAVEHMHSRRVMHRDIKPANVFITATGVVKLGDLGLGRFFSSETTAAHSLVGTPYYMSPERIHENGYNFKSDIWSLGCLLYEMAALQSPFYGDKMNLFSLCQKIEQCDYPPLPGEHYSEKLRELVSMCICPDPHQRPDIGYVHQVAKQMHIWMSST
PLK4 (human), sequence (O00444 whole entry, looked up): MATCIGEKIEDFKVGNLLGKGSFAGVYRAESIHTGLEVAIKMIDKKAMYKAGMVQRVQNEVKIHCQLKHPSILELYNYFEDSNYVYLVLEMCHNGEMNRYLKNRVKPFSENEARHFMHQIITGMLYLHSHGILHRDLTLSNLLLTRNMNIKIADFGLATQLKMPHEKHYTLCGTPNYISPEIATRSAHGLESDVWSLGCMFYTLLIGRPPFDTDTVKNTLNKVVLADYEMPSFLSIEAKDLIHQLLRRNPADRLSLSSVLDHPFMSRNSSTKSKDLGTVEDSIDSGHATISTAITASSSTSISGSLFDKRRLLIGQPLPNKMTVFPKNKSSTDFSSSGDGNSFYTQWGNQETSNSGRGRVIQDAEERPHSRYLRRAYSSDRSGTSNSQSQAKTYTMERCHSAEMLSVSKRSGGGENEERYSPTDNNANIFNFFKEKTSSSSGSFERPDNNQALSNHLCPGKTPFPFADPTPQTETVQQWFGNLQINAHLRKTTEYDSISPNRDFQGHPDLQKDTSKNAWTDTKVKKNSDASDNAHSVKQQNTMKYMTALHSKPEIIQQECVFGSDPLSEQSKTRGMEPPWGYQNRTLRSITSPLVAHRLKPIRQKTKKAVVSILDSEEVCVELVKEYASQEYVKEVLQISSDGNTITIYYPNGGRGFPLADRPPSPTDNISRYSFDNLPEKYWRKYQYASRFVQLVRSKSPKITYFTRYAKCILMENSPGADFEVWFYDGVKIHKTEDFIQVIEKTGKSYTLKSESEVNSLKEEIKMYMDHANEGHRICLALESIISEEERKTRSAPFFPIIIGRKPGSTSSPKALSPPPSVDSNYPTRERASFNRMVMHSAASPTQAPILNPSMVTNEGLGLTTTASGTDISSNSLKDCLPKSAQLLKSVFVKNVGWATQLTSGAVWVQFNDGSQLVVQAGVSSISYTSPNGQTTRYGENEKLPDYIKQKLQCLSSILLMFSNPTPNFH
STK35 (human), sequence (Q8TDR2 whole entry, looked up): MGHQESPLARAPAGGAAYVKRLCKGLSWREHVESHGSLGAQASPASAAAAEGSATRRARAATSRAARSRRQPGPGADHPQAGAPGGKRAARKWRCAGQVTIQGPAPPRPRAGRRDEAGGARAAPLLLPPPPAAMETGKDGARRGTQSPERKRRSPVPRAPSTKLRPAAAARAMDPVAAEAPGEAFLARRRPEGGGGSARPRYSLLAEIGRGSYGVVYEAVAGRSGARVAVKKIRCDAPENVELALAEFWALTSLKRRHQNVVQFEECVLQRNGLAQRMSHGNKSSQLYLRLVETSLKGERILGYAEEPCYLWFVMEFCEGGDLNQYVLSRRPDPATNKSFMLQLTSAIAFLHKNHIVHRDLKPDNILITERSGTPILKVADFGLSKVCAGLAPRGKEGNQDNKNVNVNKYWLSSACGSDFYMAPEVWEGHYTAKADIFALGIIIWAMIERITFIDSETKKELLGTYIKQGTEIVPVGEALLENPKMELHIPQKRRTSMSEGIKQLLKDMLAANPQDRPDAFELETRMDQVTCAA
TSSK1B (human), sequence (Q9BXA7 whole entry, looked up): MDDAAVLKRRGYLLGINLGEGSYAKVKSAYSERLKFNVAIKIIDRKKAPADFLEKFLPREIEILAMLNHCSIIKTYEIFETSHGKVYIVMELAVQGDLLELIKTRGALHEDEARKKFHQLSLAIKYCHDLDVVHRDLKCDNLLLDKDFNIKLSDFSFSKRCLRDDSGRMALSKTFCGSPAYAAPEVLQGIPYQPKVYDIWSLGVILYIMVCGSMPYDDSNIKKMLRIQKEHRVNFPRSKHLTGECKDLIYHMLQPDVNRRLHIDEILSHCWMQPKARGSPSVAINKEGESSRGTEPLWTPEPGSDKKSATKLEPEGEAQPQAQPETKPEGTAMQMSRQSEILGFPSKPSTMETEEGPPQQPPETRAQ
DSTYK (human), sequence (Q6XUX3 whole entry, looked up): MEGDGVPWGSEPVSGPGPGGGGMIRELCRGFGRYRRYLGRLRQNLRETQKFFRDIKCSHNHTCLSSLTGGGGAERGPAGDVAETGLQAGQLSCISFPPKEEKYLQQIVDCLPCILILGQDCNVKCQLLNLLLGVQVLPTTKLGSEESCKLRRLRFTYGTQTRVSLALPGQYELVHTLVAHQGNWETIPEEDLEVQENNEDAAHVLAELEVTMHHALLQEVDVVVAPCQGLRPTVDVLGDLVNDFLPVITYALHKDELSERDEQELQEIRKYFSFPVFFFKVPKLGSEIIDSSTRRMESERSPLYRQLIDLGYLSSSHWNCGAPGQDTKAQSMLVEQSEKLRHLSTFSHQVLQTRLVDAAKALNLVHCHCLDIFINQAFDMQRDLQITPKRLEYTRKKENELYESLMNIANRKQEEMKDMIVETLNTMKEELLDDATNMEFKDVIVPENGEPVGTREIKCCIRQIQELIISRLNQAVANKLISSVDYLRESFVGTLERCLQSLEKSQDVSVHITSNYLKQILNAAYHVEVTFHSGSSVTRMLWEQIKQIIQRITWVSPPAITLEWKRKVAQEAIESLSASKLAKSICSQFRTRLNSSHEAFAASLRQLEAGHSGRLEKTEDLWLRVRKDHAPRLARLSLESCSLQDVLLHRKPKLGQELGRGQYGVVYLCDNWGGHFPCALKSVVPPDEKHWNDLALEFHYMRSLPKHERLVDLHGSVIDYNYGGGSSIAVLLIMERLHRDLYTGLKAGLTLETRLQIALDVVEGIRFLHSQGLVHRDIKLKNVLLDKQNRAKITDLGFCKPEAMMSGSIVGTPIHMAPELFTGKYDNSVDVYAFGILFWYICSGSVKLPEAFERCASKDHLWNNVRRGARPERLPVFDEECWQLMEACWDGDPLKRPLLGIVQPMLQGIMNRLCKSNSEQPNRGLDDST
PIM1 (human), sequence (P11309 whole entry, looked up): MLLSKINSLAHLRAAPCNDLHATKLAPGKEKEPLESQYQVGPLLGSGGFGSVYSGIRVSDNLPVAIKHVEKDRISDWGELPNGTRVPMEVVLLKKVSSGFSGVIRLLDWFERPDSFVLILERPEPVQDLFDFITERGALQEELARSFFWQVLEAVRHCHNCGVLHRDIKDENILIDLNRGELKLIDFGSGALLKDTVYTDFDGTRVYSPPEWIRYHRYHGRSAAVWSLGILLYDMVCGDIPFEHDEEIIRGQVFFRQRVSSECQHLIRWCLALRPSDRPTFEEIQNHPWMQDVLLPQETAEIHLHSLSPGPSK
ROCK2 (human), sequence (O75116 whole entry, looked up): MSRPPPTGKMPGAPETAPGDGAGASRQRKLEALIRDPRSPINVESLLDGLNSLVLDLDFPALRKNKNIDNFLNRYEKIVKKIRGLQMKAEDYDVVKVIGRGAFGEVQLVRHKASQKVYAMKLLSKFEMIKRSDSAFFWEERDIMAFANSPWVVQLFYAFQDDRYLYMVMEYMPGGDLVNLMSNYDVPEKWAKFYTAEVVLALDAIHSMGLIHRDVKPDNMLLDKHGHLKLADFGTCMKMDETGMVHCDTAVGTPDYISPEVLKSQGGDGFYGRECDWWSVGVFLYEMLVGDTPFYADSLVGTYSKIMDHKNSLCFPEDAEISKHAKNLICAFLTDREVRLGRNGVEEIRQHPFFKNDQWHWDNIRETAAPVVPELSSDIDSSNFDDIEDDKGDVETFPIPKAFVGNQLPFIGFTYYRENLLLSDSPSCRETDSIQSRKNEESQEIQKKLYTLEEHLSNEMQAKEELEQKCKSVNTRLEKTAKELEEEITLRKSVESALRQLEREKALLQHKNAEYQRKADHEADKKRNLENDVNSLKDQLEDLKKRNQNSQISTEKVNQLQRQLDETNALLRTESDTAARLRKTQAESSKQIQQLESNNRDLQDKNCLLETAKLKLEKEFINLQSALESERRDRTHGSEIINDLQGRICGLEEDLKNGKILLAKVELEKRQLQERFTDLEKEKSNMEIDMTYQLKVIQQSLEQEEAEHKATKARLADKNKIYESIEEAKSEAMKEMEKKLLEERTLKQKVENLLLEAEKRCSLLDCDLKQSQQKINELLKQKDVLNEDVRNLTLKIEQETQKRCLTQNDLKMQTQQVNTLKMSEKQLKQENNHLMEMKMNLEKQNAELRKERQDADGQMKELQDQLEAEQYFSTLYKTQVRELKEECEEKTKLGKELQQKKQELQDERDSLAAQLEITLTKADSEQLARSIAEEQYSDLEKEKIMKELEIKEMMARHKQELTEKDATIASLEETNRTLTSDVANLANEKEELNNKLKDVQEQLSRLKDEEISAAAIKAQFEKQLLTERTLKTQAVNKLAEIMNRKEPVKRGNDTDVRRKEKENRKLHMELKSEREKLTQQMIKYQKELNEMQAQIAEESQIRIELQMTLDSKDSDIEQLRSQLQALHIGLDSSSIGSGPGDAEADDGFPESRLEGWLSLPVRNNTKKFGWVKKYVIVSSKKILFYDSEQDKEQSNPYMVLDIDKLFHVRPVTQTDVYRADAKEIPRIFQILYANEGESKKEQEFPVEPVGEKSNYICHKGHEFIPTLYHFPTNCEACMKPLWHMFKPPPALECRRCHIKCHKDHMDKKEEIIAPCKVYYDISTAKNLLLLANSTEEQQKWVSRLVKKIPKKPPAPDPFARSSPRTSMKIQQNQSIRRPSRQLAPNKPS

Row | SMILES | kinase still bound, per cent of control [1] [%] | kinase still bound, per cent of control [2] [%] | kinase still bound, per cent of control [3] [%] | kinase still bound, per cent of control [4] [%] | kinase still bound, per cent of control [5] [%] | kinase still bound, per cent of control [6] [%] | kinase still bound, per cent of control [7] [%] | kinase still bound, per cent of control [8] [%] | kinase still bound, per cent of control [9] [%] | kinase still bound, per cent of control [10] [%] | kinase still bound, per cent of control [11] [%] | kinase still bound, per cent of control [12] [%] | kinase still bound, per cent of control [13] [%] | kinase still bound, per cent of control [14] [%] | kinase still bound, per cent of control [15] [%] | kinase still bound, per cent of control [16] | kinase still bound, per cent of control [17] [%] | kinase still bound, per cent of control [18] [%] | kinase still bound, per cent of control [19] [%] | kinase still bound, per cent of control [20] [%] | also measured
1 | O=C1NC(=O)/C(=C/c2ccc3nccc(-c4ccncc4)c3c2)S1 | 34 | 62 | 32 | 70 | 1 | 3 | 59 | 2.2 | 77 | 100 | 20 | 71 | 58 | 20 | 61 | 39% and 61% | 40 | 100 | 100 | 94 | kinase still bound, per cent of control [21]: 1%; kinase still bound, per cent of control [22]: 49%; kinase still bound, per cent of control [23]: 98%; kinase still bound, per cent of control [24]: 21%; kinase still bound, per cent of control [25]: 36%; kinase still bound, per cent of control [26]: 51%; kinase still bound, per cent of control [27]: 39%; kinase still bound, per cent of control [28]: 97%; kinase still bound, per cent of control [29]: 91%; kinase still bound, per cent of control [30]: 100%; kinase still bound, per cent of control [31]: 81%; kinase still bound, per cent of control [32]: 66%; kinase still bound, per cent of control [33]: 100%; kinase still bound, per cent of control [34]: 0%; kinase still bound, per cent of control [35]: 53%; kinase still bound, per cent of control [36]: 46%; kinase still bound, per cent of control [37]: 95%; kinase still bound, per cent of control [38]: 1%; kinase still bound, per cent of control [39]: 56%; kinase still bound, per cent of control [40]: 30%
2 | C=CC(=O)Nc1cc(-n2c(=O)ccc3cnc4ccc(-c5cn[nH]c5)cc4c32)ccc1C | 68 | 0.35 | 89 | 100 | 69 | 22 | 58 | 87 | 77 | 100 | 94 | 100 | 0.2 | 86 | 70 | 6.2% | 66 | 99 | 100 | 90 | kinase still bound, per cent of control [21]: 70%; kinase still bound, per cent of control [22]: 98%; kinase still bound, per cent of control [23]: 100%; kinase still bound, per cent of control [24]: 87%; kinase still bound, per cent of control [25]: 12%; kinase still bound, per cent of control [26]: 94%; kinase still bound, per cent of control [27]: 9.6%; kinase still bound, per cent of control [28]: 71%; kinase still bound, per cent of control [29]: 95%; kinase still bound, per cent of control [30]: 100%; kinase still bound, per cent of control [31]: 92%; kinase still bound, per cent of control [32]: 84%; kinase still bound, per cent of control [33]: 100%; kinase still bound, per cent of control [34]: 0.1%; kinase still bound, per cent of control [35]: 72%; kinase still bound, per cent of control [36]: 89%; kinase still bound, per cent of control [37]: 97%; kinase still bound, per cent of control [38]: 18%; kinase still bound, per cent of control [39]: 88%; kinase still bound, per cent of control [40]: 56%
3 | O=C(Nc1cccc(Nc2ncc(Br)c(NCCc3cnc[nH]3)n2)c1)N1CCCC1 | 0 | 1.3 | 4.4 | 4.8 | 100 | 0.25 | 67 | 48 | 6.8 | 76 | 31 | 100 | 5.2 | 54 | 36 | 0% | 0.7 | 70 | 52 | 8.2 | kinase still bound, per cent of control [21]: 87%; kinase still bound, per cent of control [22]: 67%; kinase still bound, per cent of control [23]: 0.75%; kinase still bound, per cent of control [24]: 45%; kinase still bound, per cent of control [25]: 6.6%; kinase still bound, per cent of control [26]: 0.6%; kinase still bound, per cent of control [27]: 0.3%; kinase still bound, per cent of control [28]: 76%; kinase still bound, per cent of control [29]: 1.6%; kinase still bound, per cent of control [30]: 18%; kinase still bound, per cent of control [31]: 0.5%; kinase still bound, per cent of control [32]: 44%; kinase still bound, per cent of control [33]: 100%; kinase still bound, per cent of control [34]: 12%; kinase still bound, per cent of control [35]: 0.55%; kinase still bound, per cent of control [36]: 0.35%; kinase still bound, per cent of control [37]: 0.25%; kinase still bound, per cent of control [38]: 3.1%; kinase still bound, per cent of control [39]: 100%; kinase still bound, per cent of control [40]: 58%

Reference: the kinase profiling compilation of Christmann-Franck et al. (2016)
